# Read-outs that look alike come from different tables or passages of the source.
# Key:
# [1] = Preformulation stability of pregabalin with physically admixed non-reducing saccharides (appearance, scent); type: physicochemical
compound,measurement,setting,value
"CC(C)CC(CN)CC(=O)O (stereo not drawn) [Pregabalin, 5-methyl-3-aminomethyl-hexanoic acid]",Scent,[1]; 40° C./75% RH/4 Weeks/open,Odourless
same,Scent,[1]; 50° C./4 Weeks/closed,Odourless
same,Scent,[1]; Initial,Odourless
same,% Known Impurities Lactum RRT = 3.91,40° C./75% RH/4 Weeks/open,0.004%
same,% Known Impurities Lactum RRT = 3.91,60° C./2 Weeks/closed,0.006%
same,% Known Impurities Lactum RRT = 3.91,Initial,<0.0003%

# — US8968780B2, “Stabilized pharmaceutical composition” (Egis Gyogyszergyar Nyilvanosan Muekoedoe Reszvenytarsasag, priority 2010, dated 2015)
